Consider six compounds from patent US20250081967A1, “PESTICIDALLY ACTIVE HETEROCYCLIC DERIVATIVES WITH SULFOXIMINE CONTAINING SUBSTITUENTS” (SYNGENTA CROP PROTECTION AG, priority 2021, published 2025).

A value given as a limit tells only on which side of the number the result lay.

Holding throughout (format): in vivo
In series [1] the test system is Chilo suppressalis. The series can be described thus: Activity against Chilo suppressalis (striped rice stemborer), artificial diet. The following applies: 144 h, application rate 200 ppm, L2 larvae, 6 days after infestation. As to the method:
Example B11: Activity Against Chilo suppressalis (Striped Rice Stemborer)
24-well microtiter plates with artificial diet were treated with aqueous test solutions prepared from 10′000 ppm DMSO stock solutions by pipetting. After drying, the plates were infested with L2 larvae (6-8 per well). The samples were assessed for mortality, anti-feeding effect, and growth inhibition in comparison to untreated samples 6 days after infestation. Control of Chilo suppressalis by a test sample is given when at least one of the categories mortality, anti-feedant effect, and growth inhibition is higher than the untreated sample.

Series [2] has as its system Bemisia tabaci. The series can be described thus: Activity against Bemisia tabaci (cotton white fly), cotton leaf discs. The conditions noted are these: for mortality at 200 ppm: foliar, 144 h, application rate 200 ppm, adult white flies, 6 days after incubation. On the procedure:
Example B6: Activity Against Bemisia tabaci (Cotton White Fly)
Cotton leaf discs were placed on agar in 24-well microtiter plates and sprayed with aqueous test solutions prepared from 10′000 ppm DMSO stock solutions. After drying the leaf discs were infested with adult white flies. The samples were checked for mortality 6 days after incubation.

Series [3] has as its system Myzus persicae. The series can be described thus: Activity against Myzus persicae (green peach aphid), systemic activity, pea seedlings. The following applies: Myzus persicae; for mortality at 24 ppm: 144 h, test rate 24 ppm, systemic, 6 days after placing seedlings in test solutions. As to the method: Example B5: Activity Against Myzus persicae (Green Peach Aphid) Systemic Activity
Roots of pea seedlings infested with an aphid population of mixed ages were placed directly in the aqueous test solutions prepared from 10′000 DMSO stock solutions. The samples were assessed for mortality 6 days after placing seedlings in test solutions.

Series [4] relates to Diabrotica balteata. The series can be described thus: Activity against Diabrotica balteata (corn root worm), maize sprouts. On the procedure:
Example B3: Activity Against Diabrotica Balteata (Corn Root Worm)
Maize sprouts placed onto an agar layer in 24-well microtiter plates were treated with aqueous test solutions prepared from 10′000 ppm DMSO stock solutions by spraying. After drying, the plates were infested with L2 larvae (6 to 10 per well). The samples were assessed for mortality and growth inhibition in comparison to untreated samples 4 days after infestation.

The test system of series [5] is Myzus persicae. The series can be described thus: Activity against Myzus persicae (green peach aphid), feeding/contact activity, sunflower leaf discs. The conditions noted are these: for mortality at 200 ppm: Myzus persicae, foliar, 144 h, application rate 200 ppm, feeding/contact, 6 days after infestation; for Mortality (%): Myzus persicae (feeding/contact). On the procedure:
Example B4: Activity Against Myzus persicae (Green Peach Aphid) Feeding/Contact Activity
Sunflower leaf discs were placed on agar in a 24-well microtiter plate and sprayed with aqueous test solutions prepared from 10′000 ppm DMSO stock solutions. After drying, the leaf discs were infested with an aphid population of mixed ages. The samples were assessed for mortality 6 days after infestation.

Series [6] has as its system Spodoptera littoralis. The series can be described thus: Activity against Spodoptera littoralis (Egyptian cotton leaf worm), cotton leaf discs. The following applies: foliar, 72 h, application rate 200 ppm, L1 larvae, 3 days after infestation, read-out: control (mortality, anti-feeding effect or growth inhibition). In outline:
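Cotton leaf discs on agar sprayed with aqueous test solutions made from 10′000 ppm DMSO stocks, dried, then infested with five L1 larvae. Mortality, anti-feeding and growth inhibition scored versus untreated samples 3 days after infestation; control given when any category exceeds untreated.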

The test system of series [7] is Plutella xylostella. The series can be described thus: Activity against Plutella xylostella (diamond back moth), artificial diet, eggs. The following applies: 192 h, application rate 200 ppm, 8 days after infestation, read-out: effect in at least one of the two categories (mortality or growth inhibition). On the procedure:
Example B9: Activity Against Plutella xylostella (Diamond Back Moth)
24-well microtiter plates with artificial diet were treated with aqueous test solutions prepared from 10′000 ppm DMSO stock solutions by pipetting. After drying, Plutella eggs were pipetted through a plastic stencil onto a gel blotting paper and the plate was closed with it. The samples were assessed for mortality and growth inhibition in comparison to untreated samples 8 days after infestation.

`CCS(=N)(=O)c1cc(C2(C#N)CC2)ccc1-c1nc2cc(C(F)(F)F)cnc2n1C` (single isomer, unassigned) [Compound P6-A, 1-[3-(ethylsulfonimidoyl)-4-[3-methyl-6-(trifluoromethyl)imidazo[4,5-b]pyridin-2-yl]phenyl]cyclopropanecarbonitrile] registered a percent control (mortality, anti-feedant effect or growth inhibition) at 200 ppm in series [1] of at least 80%. Further, the mortality at 200 ppm in series [2] and in series [5] was at least 80% in each case. The mortality at 24 ppm in series [3] is at least 80%. In series [3] (Myzus persicae (systemic), concentration 6 ppm), this compound displayed a mortality at 6 ppm of 80%. For the same compound, the percent effect (mortality or growth inhibition) at 200 ppm in series [4] (96 h, application rate 200 ppm, L2 larvae, 4 days after infestation, read-out: effect in at least one of the two categories (mortality or growth inhibition)) was at least 80%. This compound showed a mortality at 50 ppm in series [4] (concentration 50 ppm) of 80%.

With `CCS(=N)(=O)c1cc(C2(C#N)CC2)cnc1-c1nc2cc(C(F)(F)F)cnc2n1C` (single isomer, unassigned) [Compound P16-B, 1-[5-(ethylsulfonimidoyl)-6-[3-methyl-6-(trifluoromethyl)imidazo[4,5-b]pyridin-2-yl]-3-pyridyl]cyclopropanecarbonitrile], the percent control (mortality, anti-feedant effect or growth inhibition) at 200 ppm in series [1] and in series [6] was at least 80% each time. Further, the entries for the “Mortality (%)” value in series [2] (concentration 12.5 ppm) and in series [5] (concentration 3.125 ppm) were 80% and 100%, respectively.

Take `CCS(=N)(=O)c1cc(OC(C)(C)C#N)cnc1-c1nc2cc(C(F)(F)F)ncc2n1C` (single isomer, unassigned) [Compound P13-B, 2-[[5-(ethylsulfonimidoyl)-6-[3-methyl-6-(trifluoromethyl)imidazo[4,5-c]pyridin-2-yl]-3-pyridyl]oxy]-2-methyl-propanenitrile]: the percent control (mortality, anti-feedant effect or growth inhibition) at 200 ppm in series [1] and in series [6] was at least 80% in each case. Besides, the “Mortality (%)” value in series [4] (concentration 50 ppm) and in series [5] (concentration 12.5 ppm) was 100% each time.

For `CCS(=N)(=O)c1cc(C2(C#N)CC2)cnc1-c1nc2cc(C(F)(F)F)ncc2n1C` (racemic) [Compound P10, 1-[5-(ethylsulfonimidoyl)-6-[3-methyl-6-(trifluoromethyl)imidazo[4,5-c]pyridin-2-yl]-3-pyridyl]cyclopropanecarbonitrile], the percent control (mortality, anti-feedant effect or growth inhibition) at 200 ppm in series [1] was at least 80%. For the same compound, the mortality at 200 ppm in series [2] and in series [5] was at least 80% each time. Further, the mortality at 24 ppm in series [3] is at least 80%. Further, in series [7], the percent effect (mortality or growth inhibition) at 200 ppm was at least 80%.

`CCS(=N)(=O)c1cc(C2(C#N)CC2)cnc1-c1nc2cc(C(F)(F)F)n(OC)c(=O)c2n1C` (single isomer, unassigned) [Compound P8-B, 1-[5-(ethylsulfonimidoyl)-6-[5-methoxy-3-methyl-4-oxo-6-(trifluoromethyl)imidazo[4,5-c]pyridin-2-yl]-3-pyridyl]cyclopropanecarbonitrile] displayed a percent control (mortality, anti-feedant effect or growth inhibition) at 200 ppm in series [1] of at least 80%. Moreover, the percent effect (mortality or growth inhibition) at 200 ppm in series [7] is at least 80%.

In series [1], `CCS(=N)(=O)c1cc(C2(C#N)CC2)cnc1-c1nc2cc(C(F)(F)F)nnc2n1C` (single isomer, unassigned) [Compound P2-A, 1-[5-(ethylsulfonimidoyl)-6-[7-methyl-3-(trifluoromethyl)imidazo[4,5-c]pyridazin-6-yl]-3-pyridyl]cyclopropanecarbonitrile] gave a percent control (mortality, anti-feedant effect or growth inhibition) at 200 ppm of at least 80%. The mortality at 200 ppm in series [2] and in series [5] was at least 80% in each case. Further, the mortality at 24 ppm in series [3] was at least 80%. Besides, the “Mortality (%)” value in series [5] (concentration 3.125 ppm) came to 100%.
